Experimental data taken from PubChem BioAssay AID248 (DTP/NCI, 2004).
“And” between values parts separate entries of the source, which are not always exact repeats. Equal values may be shown once. Inconclusive results and toxic doses are left out. No stated cut-off is given here; in the data, active means T/C of 150% or more; inactive means T/C below 125%.

Tested on: L1210 leukemia ip in BDF1 mice, survival T/C
Test: NCI In Vivo Anticancer Drug Screen. Data for tumor model L1210 Leukemia (intraperitoneal) in B6D2F1 (BDF1) mice
Settings: endpoint: mean survival time, higher = longer survival
How it was run: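 Tumor was transplanted into mice, which were then dosed with test compound or vehicle alone. Survival was recorded for each group, and the treated figure was expressed relative to the control figure.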

[1] = dose: 100.0 mg/kg/injection, schedule: Q01DX009 (ip), vehicle: Klucel (hydroxypropylcellulose) (HPC)
[2] = dose: 200.0 mg/kg/injection, schedule: Q01DX009 (ip), vehicle: Klucel (hydroxypropylcellulose) (HPC)
[3] = dose: 100.0 mg/kg/injection, schedule: Q01DX009 (ip), vehicle: saline
[4] = dose: 200.0 mg/kg/injection, schedule: Q01DX009 (ip), vehicle: saline
[5] = dose: 400.0 mg/kg/injection, schedule: Q01DX009 (ip), vehicle: saline
[6] = dose: 100.0 mg/kg/injection, schedule: Q04DX003 (ip), vehicle: Klucel (hydroxypropylcellulose) (HPC)
[7] = dose: 200.0 mg/kg/injection, schedule: Q04DX003 (ip), vehicle: Klucel (hydroxypropylcellulose) (HPC)
[8] = dose: 400.0 mg/kg/injection, schedule: Q01DX009 (ip), vehicle: Klucel (hydroxypropylcellulose) (HPC)
[9] = dose: 400.0 mg/kg/injection, schedule: Q04DX003 (ip), vehicle: Klucel (hydroxypropylcellulose) (HPC)
[10] = dose: 100.0 mg/kg/injection, schedule: Q04DX003 (ip), vehicle: saline with Tween-80
[11] = dose: 200.0 mg/kg/injection, schedule: Q04DX003 (ip), vehicle: saline with Tween-80
[12] = dose: 400.0 mg/kg/injection, schedule: Q04DX003 (ip), vehicle: saline with Tween-80
[13] = dose: 50.0 mg/kg/injection, schedule: Q01DX009 (ip), vehicle: Klucel (hydroxypropylcellulose) (HPC)

Measured: T/C

CC(O)CC1CC(=O)CCC1=O (stereo not given)
inactive: dose: 100.0 mg/kg/injection, schedule: Q01DX009 (ip), vehicle: acetone 96 % of control | dose: 200.0 mg/kg/injection, schedule: Q01DX009 (ip), vehicle: acetone 101 % of control | dose: 400.0 mg/kg/injection, schedule: Q01DX009 (ip), vehicle: acetone 102 % of control

N#Cc1cccc(/C=C/C=C\c2ccc([N+](=O)[O-])cc2)c1
inactive: [1] 89 % of control | [2] 95 % of control

NCCc1cc(O)c(O)cc1O
inactive: dose: 25.0 mg/kg/injection, schedule: Q01DX009 (ip), vehicle: saline 102 % of control and 107 % of control | dose: 50.0 mg/kg/injection, schedule: Q01DX009 (ip), vehicle: saline 93 % of control and 103 % of control | [3] 93 % of control and 91 % of control | [4] 88 % of control | [5] 86 % of control

CNC(=S)NNc1ccccc1
inactive: [1] 110 % of control | [6] 104 % of control | dose: 100.0 mg/kg/injection, schedule: Q04DX003 (ip), vehicle: gum acacia 98 % of control | [2] 103 % of control | [7] 104 % of control | dose: 200.0 mg/kg/injection, schedule: Q04DX003 (ip), vehicle: gum acacia 96 % of control | [8] 103 % of control | [9] 103 % of control | dose: 400.0 mg/kg/injection, schedule: Q04DX003 (ip), vehicle: gum acacia 101 % of control

CCOC(=O)c1cnc(SC)nc1Nc1c(Cl)cccc1Cl
inactive: [10] 96 % of control | [11] 94 % of control | [12] 94 % of control

CN(C)C(=O)N/C=C/NC(=O)N(C)C
inactive: dose: 12.5 mg/kg/injection, schedule: Q04DX002 (ip), vehicle: saline with Tween-80 92 % of control | dose: 25.0 mg/kg/injection, schedule: Q04DX002 (ip), vehicle: saline with Tween-80 89 % of control | dose: 50.0 mg/kg/injection, schedule: Q04DX002 (ip), vehicle: saline with Tween-80 106 % of control

NNC(=O)C1C2CCCCC21 (stereo not given)
inactive: [10] 107 % of control

NC(=O)c1ccc(Cl)c(Cl)c1
inactive: [10] 97 % of control | [11] 95 % of control | [12] 91 % of control

CCCCCCCC(=O)N(CCC(=O)O)C(=O)O
inactive: dose: 100.0 mg/kg/injection, schedule: Q01DX001 (ip), vehicle: saline with Tween-80 88 % of control | dose: 200.0 mg/kg/injection, schedule: Q01DX001 (ip), vehicle: saline with Tween-80 96 % of control | dose: 400.0 mg/kg/injection, schedule: Q01DX001 (ip), vehicle: saline with Tween-80 107 % of control

Cc1ccccc1C1=CCCCC1
inactive: dose: 50.0 mg/kg/injection, schedule: Q01DX001 (ip), vehicle: carboxymethylcellulose (CMC) 87 % of control | dose: 100.0 mg/kg/injection, schedule: Q01DX001 (ip), vehicle: carboxymethylcellulose (CMC) 104 % of control | dose: 200.0 mg/kg/injection, schedule: Q01DX001 (ip), vehicle: carboxymethylcellulose (CMC) 96 % of control | dose: 400.0 mg/kg/injection, schedule: Q01DX001 (ip), vehicle: carboxymethylcellulose (CMC) 97 % of control

CNc1nn[nH]n1
inactive: dose: 100.0 mg/kg/injection, schedule: Q04DX003 (ip), vehicle: saline 100 % of control | dose: 200.0 mg/kg/injection, schedule: Q04DX003 (ip), vehicle: saline 93 % of control | dose: 400.0 mg/kg/injection, schedule: Q04DX003 (ip), vehicle: saline 89 % of control

Cc1ccccc1Oc1ccccc1N
inactive: dose: 100.0 mg/kg/injection, schedule: Q01DX009 (sc), vehicle: olive oil, sesame oil, peanut oil 101 % of control | dose: 100.0 mg/kg/injection, schedule: Q04DX003 (sc), vehicle: olive oil, sesame oil, peanut oil 110 % of control | dose: 200.0 mg/kg/injection, schedule: Q01DX009 (sc), vehicle: olive oil, sesame oil, peanut oil 101 % of control | dose: 200.0 mg/kg/injection, schedule: Q04DX003 (sc), vehicle: olive oil, sesame oil, peanut oil 94 % of control | dose: 400.0 mg/kg/injection, schedule: Q01DX009 (sc), vehicle: olive oil, sesame oil, peanut oil 97 % of control | dose: 400.0 mg/kg/injection, schedule: Q04DX003 (sc), vehicle: olive oil, sesame oil, peanut oil 116 % of control

CCCCCCCCCCCCSC1=C(Cl)C(=O)C(OC)=C(OC)C1=O
inactive: dose: 3.12 mg/kg/injection, schedule: Q01DX009 (ip), vehicle: saline with Tween-80 100 % of control | dose: 6.25 mg/kg/injection, schedule: Q01DX009 (ip), vehicle: saline with Tween-80 93 % of control | dose: 12.5 mg/kg/injection, schedule: Q01DX009 (ip), vehicle: saline with Tween-80 94 % of control | dose: 25.0 mg/kg/injection, schedule: Q01DX009 (ip), vehicle: saline with Tween-80 96 % of control | dose: 50.0 mg/kg/injection, schedule: Q01DX009 (ip), vehicle: saline with Tween-80 100 % of control | dose: 100.0 mg/kg/injection, schedule: Q01DX009 (ip), vehicle: saline with Tween-80 94 % of control

c1ccc(C([CH2][Hg][CH2]C(c2ccccc2)c2ccccc2)c2ccccc2)cc1
inactive: [3] 101 % of control | [6] 97 % of control | [4] 96 % of control | [7] 93 % of control | [5] 101 % of control | [9] 90 % of control

Cc1cccc(NC(=O)Nc2cccc(Cl)c2)c1C
inactive: [1] 91 % of control | [6] 90 % of control | [2] 100 % of control | [7] 90 % of control | [8] 93 % of control | [9] 89 % of control

Clc1ccc(Sc2ncnc3nc[nH]c23)cc1
inactive: [10] 102 % of control | [11] 100 % of control | [12] 105 % of control

CC(=O)C1C=NCCN=CC(C(C)=O)C(C)=NCCCN=C1C.[Ni] (stereo not given)
inactive: [13] 101 % of control | [1] 105 % of control | [6] 100 % of control | [2] 103 % of control | [7] 95 % of control | [9] 106 % of control

NC(=O)N1CCCCN1C(N)=O
inactive: dose: 100.0 mg/kg/injection, schedule: Q04DX002 (ip), vehicle: saline 99 % of control | dose: 200.0 mg/kg/injection, schedule: Q04DX002 (ip), vehicle: saline 111 % of control | dose: 400.0 mg/kg/injection, schedule: Q04DX002 (ip), vehicle: saline 92 % of control

Cc1cccc(Cl)c1NC(=O)Oc1ccccc1C(N)=O
inactive: [1] 92 % of control | dose: 100.0 mg/kg/injection, schedule: Q04DX002 (ip), vehicle: Klucel (hydroxypropylcellulose) (HPC) 95 % of control | [2] 100 % of control | dose: 200.0 mg/kg/injection, schedule: Q04DX002 (ip), vehicle: Klucel (hydroxypropylcellulose) (HPC) 100 % of control | [8] 105 % of control | dose: 400.0 mg/kg/injection, schedule: Q04DX002 (ip), vehicle: Klucel (hydroxypropylcellulose) (HPC) 100 % of control

CCCCOC(OCCCC)C(C)(C)CN(C)C
inactive: dose: 12.5 mg/kg/injection, schedule: Q04DX002 (ip), vehicle: saline 117 % of control | dose: 25.0 mg/kg/injection, schedule: Q04DX002 (ip), vehicle: saline 105 % of control | dose: 50.0 mg/kg/injection, schedule: Q04DX002 (ip), vehicle: saline 98 % of control

C[N+](C)(C)CCOc1ccc(Cl)cc1
inactive: dose: 12.0 mg/kg/injection, schedule: Q04DX003 (ip), vehicle: Klucel (hydroxypropylcellulose) (HPC) 91 % of control | dose: 25.0 mg/kg/injection, schedule: Q01DX009 (ip), vehicle: Klucel (hydroxypropylcellulose) (HPC) 103 % of control | dose: 25.0 mg/kg/injection, schedule: Q04DX003 (ip), vehicle: Klucel (hydroxypropylcellulose) (HPC) 93 % of control | [13] 106 % of control | dose: 50.0 mg/kg/injection, schedule: Q04DX003 (ip), vehicle: Klucel (hydroxypropylcellulose) (HPC) 96 % of control | [1] 98 % of control

C[CH2][Sn](/[CH]=C/C=C/OC)([CH2]C)[CH2]C
inactive: dose: 0.19 mg/kg/injection, schedule: Q01DX009 (ip), vehicle: saline 99 % of control | dose: 0.39 mg/kg/injection, schedule: Q01DX009 (ip), vehicle: saline 94 % of control | dose: 0.78 mg/kg/injection, schedule: Q01DX009 (ip), vehicle: saline 99 % of control | dose: 6.25 mg/kg/injection, schedule: Q01DX009 (ip), vehicle: saline 94 % of control | dose: 12.5 mg/kg/injection, schedule: Q01DX009 (ip), vehicle: saline 97 % of control
